Here are results for 24 compounds from patent US6855730B2, “3-methylidenyl-2-indolinone modulators of protein kinase” (Sugen, Inc., priority 1998, dated 2005).

T1 sequence (P35968 20-1356): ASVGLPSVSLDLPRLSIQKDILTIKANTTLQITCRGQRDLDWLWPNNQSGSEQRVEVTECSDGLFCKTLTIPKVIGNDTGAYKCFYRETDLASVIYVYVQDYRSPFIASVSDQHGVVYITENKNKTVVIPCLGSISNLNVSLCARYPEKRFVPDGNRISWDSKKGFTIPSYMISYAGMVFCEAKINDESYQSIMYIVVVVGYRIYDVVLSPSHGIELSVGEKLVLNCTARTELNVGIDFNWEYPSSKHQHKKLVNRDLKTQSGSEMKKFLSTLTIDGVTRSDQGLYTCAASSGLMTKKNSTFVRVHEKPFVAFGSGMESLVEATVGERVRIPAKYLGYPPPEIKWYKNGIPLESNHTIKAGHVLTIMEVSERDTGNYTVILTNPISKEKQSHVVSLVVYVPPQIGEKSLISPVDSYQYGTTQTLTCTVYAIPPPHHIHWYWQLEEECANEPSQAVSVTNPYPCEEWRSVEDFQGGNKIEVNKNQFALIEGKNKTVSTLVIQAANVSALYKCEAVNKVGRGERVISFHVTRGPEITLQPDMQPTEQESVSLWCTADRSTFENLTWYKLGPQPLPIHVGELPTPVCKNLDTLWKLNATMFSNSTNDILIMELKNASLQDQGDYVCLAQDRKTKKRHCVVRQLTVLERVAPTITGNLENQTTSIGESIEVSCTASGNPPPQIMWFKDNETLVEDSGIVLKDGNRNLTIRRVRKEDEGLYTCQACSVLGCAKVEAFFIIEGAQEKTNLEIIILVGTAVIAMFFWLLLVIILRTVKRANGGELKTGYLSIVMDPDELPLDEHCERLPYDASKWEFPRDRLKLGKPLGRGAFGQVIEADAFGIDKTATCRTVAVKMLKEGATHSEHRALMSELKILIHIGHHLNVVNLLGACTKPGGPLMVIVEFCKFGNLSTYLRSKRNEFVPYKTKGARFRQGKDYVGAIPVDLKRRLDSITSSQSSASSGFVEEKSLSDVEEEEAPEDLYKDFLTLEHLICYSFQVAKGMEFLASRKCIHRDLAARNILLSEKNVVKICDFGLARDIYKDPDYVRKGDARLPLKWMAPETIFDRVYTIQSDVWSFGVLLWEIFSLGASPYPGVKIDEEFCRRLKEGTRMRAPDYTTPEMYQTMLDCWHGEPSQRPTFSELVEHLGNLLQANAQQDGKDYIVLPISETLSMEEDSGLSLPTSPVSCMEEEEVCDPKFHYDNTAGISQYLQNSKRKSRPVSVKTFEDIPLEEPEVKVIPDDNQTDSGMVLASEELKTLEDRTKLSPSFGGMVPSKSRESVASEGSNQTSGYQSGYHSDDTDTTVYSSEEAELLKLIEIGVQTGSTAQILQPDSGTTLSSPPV

This test addresses T1, human flk-1 (Homo sapiens, UniProt P35968).
T1 construct: host or cells: Flk-1/NIH cells (NIH fibroblasts)
Briefly: Biochemical FLK-1 assay (flk-1 autophosphorylation ELISA). To be noted: read-out: bio FLK1 IC50 (μM) % if inhibition at 100. As for the experimental part:
This assay evaluates flk-1 autophosphorylation activity in vitro using ELISA.
Materials And Reagents • 1. 15 cm tissue culture dishes • 2. Flk-1/NIH cells: NIH fibroblast line over-expressing human flk-1clone 3 (SUGEN, Inc., obtained from MPI, Martinsried, Germany). • 3. Growth medium: DMEM plus heat inactivated 10% FBS and 2 mM Glutamine (Gibco-BRL). • 4. Starvation medium: DMEM plus 0.5% heat-inactivated FBS, 2 mM Glutamine (Gibco-BRL). • 5. […] L4 or E38 monoclonal antibody specific for flk-1, Purified by Protein-A agarose affinity chromatography (SUGEN, Inc.). • 7. PBS (Dulbecco's Phosphate-Buffered Saline) Gibco Cat. No. 450-1300EB). • 8. HNTG (see BIOCHEMICAL FGFR for preparation). • 9. Pierce BCA protein determination kit. • 10. Blocking buffer • 11. TBST (pH 7.0) • 12. Kinase Buffer • 13. Kinase Stop Solution: 200 mM EDTA. • 14. […] AB kit (Vector Laboratories Cat. No. PK 4000). • 16. DMSO • 17. NUNC 96-well V bottom polypropylene plates (Applied Scientific Cat. No. AS-72092). • 18. Turbo-TMB (Pierce). • 19. Turbo-TMB stop solution: 1 M H2SO4. • 20. ATP (Sigma Cat. No. A-7699). • 21. 20% DMSO in TBS (pH 7.0). Procedure
Cell Growth and Lysate Preparation. • 1. Seed cell into growth medium and grow for 2-3 days to 90-100% confluency at 37° C. and 5% CO2.
2. Remove the medium and wash the cells twice with PBS. Lyse with HNTG lysis buffer. Collect all lysates and vortex mix them for 20-30 seconds. • 3. Remove insoluble material by centrifugation (5-10 min at about 10,000 ×g). • 4. Determine the protein concentration using BCA kit. • 5. Partition lysate into 1 mg aliquots, store at −80° C.
Assay Procedure • 1. Coat Corning 96-well ELISA plates with 2 μg/well purified L4 (or E 38) in 100 μl of PBS. Store overnight at […] • 2. Remove unbound proteins from wells by inverting the plate to remove the liquid. Wash one time with dH2O, pat plate on paper towel to remove excess liquid. • 3. Block plates with 150 μl blocking buffer per well. Incubate for 45-60 minutes with shaking at 4° C. • 4. Remove the blocking buffer and wash the ELISA plate three times with dH2O and one time with TBST. Pat plate on paper towel to remove excess liquid. • 5. Dilute lysate in PBS to give final concentration of 50 μg/100 μl. Add 100 μl of diluted lysate to each well. Incubate with shaking at 4° C. overnight. • 6. Remove unbound proteins from wells by inverting the plate. Wash as in step 4. • 7. Add 80 μl of kinase buffer to wells (90 μl to negative control wells). • 8. Dilute test compounds (normally 10-fold) into wells of a polypropylene plate containing 20% DMSO in TBS. • 9. Add 10 μl of the diluted compounds to the ELISA wells containing immobilized flk-1 and shake. Control wells receive no compounds. • 10. From stock 1 mM ATP, prepare 0.3 mM ATP solution in dH2O (alternatively, kinase buffer may be used). • 11. Add 10 μl of 0.3 mM ATP to all wells except the negative controls. Incubate for 60 min. at room temperature with shaking. • 12. After 1 hr stop the kinase reaction by adding 11 μl 200 mM EDTA. Shake for 1-2 min. • 13. Wash the ELISA plate 4 times with dH2O and twice with TBST. • 14. Add 100 μl of 1:5000 biotinylated 4G10:TBST to all wells. Incubate 45 min with shaking at room temperature. • 15. While the above is incubating, add 50 μl of solutions A & B from the ABC kit to 10 ml of TBST. These solutions must be combined approximately 30 min prior to use. • 16. Wash plates as in step 4. • 17. Add 100 μl of the preformed A & B complex to all wells. Incubate 30 min with shaking at room temperature. • 18. Wash plates as in step 4. • 19. Add 100 μl turbo-TMB. Shake at room temperature for 10-15 min. • 20. When the color in the positive control wells reaches an absorbance of about 0.35-0.4, stop the reaction with 100 μl of turbo-TMB stop solution. • 21. Read plates on Dynatech MR7000 ELISA reader, test filter: 450 nM, reference filter: 410 nM.
(In general: In an ELISA, binding on a coated surface is turned into a signal by an enzyme label.)
A word on the IC50: it is the concentration needed to halve the response being measured. As to `CNC(=O)CCc1c(/C=C2\C(=O)Nc3ccccc32)[nH]c2c1CCCC2` [Example 201, N-Methyl-3-[2-(2-oxo-1,2-dihydroindol-3-ylidenemethyl)-4,5,6,7-tetrahydro-1H-indol-3-yl]-propionamide], the IC50 stood at 0.16 µM. Turning to `NC(=O)CCc1c(/C=C2\C(=O)Nc3ccccc32)[nH]c2c1CCCC2` [Example 199, 3-[2-(2-Oxo-1,2-dihydroindol-3-ylidenemethyl)-4,5,6,7-tetrahydro-1H-indol-3-yl]-propionamide], the IC50 worked out at 0.13 µM. On to `Cc1c[nH]c(/C=C2\C(=O)Nc3ccc(Cl)cc32)c1CCC(=O)O` [Example 216, 3-[2-(5-Chloro-2-oxo-1,2-dihydroindol-3-ylidenemethyl)-4-methyl-1H-pyrrol-3-yl]-propionic acid], for which the half-maximal inhibitory concentration (IC50) worked out at 2.91 µM. Regarding `Cc1cccc2c1/C(=C/c1[nH]c3c(c1CCC(=O)O)CCCC3)C(=O)N2` [Example 193, 3-[2-(4-Methyl-2-oxo-1,2-dihydroindol-3-ylidenemethyl)-4,5,6,7-tetrahydro-1H-indol-3-yl]-propionic acid], the IC50 is 0.02 µM. With `Cc1c[nH]c(/C=C2\C(=O)Nc3ccc(Br)cc32)c1CCC(=O)O` [Example 220, 3-[2-(5-Bromo-2-oxo-1,2-dihydroindol-3-ylidenemethyl)-4-methyl-1H-pyrrol-3-yl]-propionic acid], the concentration for half-maximal inhibition (IC50) came to 0.35 µM. As for `COc1ccc(-c2ccc3c(c2)NC(=O)/C3=C\c2[nH]c3c(c2CCC(=O)O)CCCC3)cc1` [Example 205, 3-{2-[6-(4-Methoxyphenyl)-2-oxo-1,2-dihydro-indol-3-ylidenemethyl]-4,5,6,7-tetrahydro-1H-indol-3-yl}-propionic acid], the IC50 turned out to be 0.52 µM. For the compound `O=C(O)CCc1c(/C=C2\C(=O)Nc3ccc(Br)cc32)[nH]c2c1CCCC2` [Example 192, 3-[2-(5-Bromo-2-oxo-1,2-dihydroindol-3-ylidenemethyl)-4,5,6,7-tetrahydro-1H-indol-3yl]-propionic acid], the IC50 was found to be 0.03 µM.

In the case of `COc1c(C(C)C)cc(/C=C2/C(=O)Nc3ccc(Cl)cc32)cc1C(C)C` [Example 2, 5-Chloro-3-(3,5-diisopropyl-4-methoxybenzylidene)-1,3-dihydroindol-2-one], the IC50 was more than 50 µM. `CCOc1cccc(-c2ccc3c(c2)NC(=O)/C3=C\c2[nH]cc(C)c2CCC(=O)O)c1` [Example 224, 3-{2-[6-(3-Ethoxyphenyl)-2-oxo-1,2-dihydro-indol-3-ylidenemethyl]-4-methyl-1H-pyrrol-3-yl}-propionic acid]: the IC50 worked out at 1 µM. Regarding `O=C(O)CCc1c(/C=C2\C(=O)Nc3cc(-c4ccccc4)ccc32)[nH]c2c1CCCC2` [Example 206, 3-[2-(2-oxo-6-phenyl-1,2-dihydroindol-3-ylidenemethyl)-4,5,6,7-tetrahydro-1H-indol-3-yl]-propionic acid], the IC50 was 6.08 µM. For `O=C(O)CCc1ccccc1/C=C1/C(=O)Nc2ccccc21` [Example 214, 3-[2-(2-Oxo-1,2-dihydroindol-3-ylidenemethyl)-phenyl]-propionic acid], the half-maximal inhibitory concentration (IC50) amounted to 50.6 µM. Under `Cc1ccc2c(c1)/C(=C/c1[nH]c3c(c1CCC(=O)O)CCCC3)C(=O)N2` [Example 194, 3-[2-(5-Methyl-2-oxo-1,2-dihydroindol-3-ylidenemethyl)-4,5,6,7-tetrahydro-1H-indol-3-yl]-propionic acid] stands 0.001 µM. As to `Cc1c[nH]c(/C=C2\C(=O)Nc3cccc(C)c32)c1CCC(=O)O` [Example 218, 3-[2-(4-Methyl-2-oxo-1,2-dihydroindol-3-ylidenemethyl)-4-methyl-1H-pyrrol-3-yl]-propionic acid], the concentration for half-maximal inhibition (IC50) amounted to 0.2 µM. Turning to `COc1cccc(-c2ccc3c(c2)NC(=O)/C3=C\c2[nH]cc(C)c2CCC(=O)O)c1` [Example 223, 3-{2-[6-(3-Methoxyphenyl)-2-oxo-1,2-dihydro-indol-3-ylidenemethyl]-4-methyl-1H-pyrrol-3-yl}-propionic acid], the half-inhibitory concentration (IC50) was found to be 28.2 µM.

As for `O=C1Nc2ccc(N=Cc3cc4ccccc4[nH]3)cc2C1=Cc1cc2ccccc2[nH]1` [Example 171, 3-(1H-indol-2-ylmethylene)-5-[(1H-indol-2-ylmethylene)-amino]-1,3-dihydroindol-2-one], the 50% inhibitory concentration (IC50) came to 20.4 µM.

For `O=C(O)CCc1c(/C=C2\C(=O)Nc3cc(Cl)ccc32)[nH]c2c1CCCC2` [Example 195, 3-[2-(6-Chloro-2-oxo-1,2-dihydroindol-3-ylidenemethyl)-4,5,6,7-tetrahydro-1H-indol-3-yl]-propionic acid], the IC50 stood at 0.03 µM. `O=C(O)CCc1c(/C=C2\C(=O)Nc3ccc(Cl)cc32)[nH]c2c1CCCC2` [Example 191, 3-[2-(5-Chloro-2-oxo-1,2-dihydroindol-3-ylidenemethyl)-4,5,6,7-tetrahydro-1H-indol-3-yl]-propionic acid]: the IC50 is 0.02 µM.

Turning to `COc1ccc2c(c1)/C(=C/c1[nH]cc(C)c1CCC(=O)O)C(=O)N2` [Example 222, 3-[2-(5-Methoxy-2-oxo-1,2-dihydroindol-3-ylidenemethyl)-4-methyl-1H-pyrrol-3-yl]-propionic acid], the half-inhibitory concentration (IC50) is less than 0.78 µM. Take `O=C(O)CCc1c(/C=C2\C(=O)Nc3ncccc32)[nH]c2c1CCCC2` [Example 203, 3-[2-(2-Oxo-1,2-dihydropyrrolo[2,3-b]pyridin-3-ylidenemethyl)-4,5,6,7-tetrahydro-1H-indol-3-yl]-propionic acid]: the half-inhibitory concentration (IC50) is 0.14 µM.

Turning to `COc1ccc2c(c1)NC(=O)/C2=C\c1[nH]c2c(c1CCC(=O)O)CCCC2` [Example 196, 3-[2-(6-Methoxy-2-oxo-1,2-dihydroindol-3-ylidenemethyl)-4,5,6,7-tetrahydro-1H-indol-3-yl]-propionic acid], the IC50 was found to be 0.89 µM. With `CC(C)NS(=O)(=O)c1ccc2c(c1)C(=Cc1[nH]c3c(c1CCC(=O)O)CCCC3)C(=O)N2` [Example 208, 3-[2-(5-Isopropylaminosulfonyl-2-oxo-1,2-dihydroindol-3-ylidenemethyl)-4,5,6,7-tetrahydro-1H-indol-3-yl]-propionic acid], the concentration for half-maximal inhibition (IC50) is less than 0.78 µM. As for `COc1c(C(C)C)cc(/C=C2/C(=O)Nc3ccccc32)cc1C(C)C` [Example 1, 3-(3,5-Diisopropyl-4-methoxybenzylidene)-1,3-dihydroindol-2-one], the 50% inhibitory concentration (IC50) is more than 50 µM. Next, `CN(C)CCCc1c(/C=C2\C(=O)Nc3ccccc32)[nH]c2c1CCCC2` [Example 198, 3-[3-(3-Dimethylaminopropyl)-4,5,6,7-tetrahydro-1H-indol-2-ylmethylene]-1,3-dihydroindol-2-one]: 7.44 µM; `O=C(CCc1c(/C=C2\C(=O)Nc3ccccc32)[nH]c2c1CCCC2)NCCN1CCOCC1` [Example 202, N-(2-Morpholin-4-ylethyl)-3-[2-(2-oxo-1,2-dihydroindol-3-ylidenemethyl)-4,5,6,7-tetrahydro-1H-indol-3-yl]-propionamide]: 0.63 µM.
